Assay results as given in patent US12543738B2 (Bayer Aktiengesellschaft, priority 2020, dated 2026).

Columns and labels:
Sphaerotheca fuliginea = test: In vivo preventive test on Sphaerotheca fuliginea (powdery mildew on cucurbits); settings: Podosphaera fuliginea, 192 h; 500 ppm of active ingredient; preventive spray on gherkin; evaluated 8 days after inoculation; read-out: efficacy
Protocol: (§1) The active ingredients were made soluble and homogenized in a mixture of Dimethyl sulfoxide/Acetone//Tween® 80 and then diluted in water to the desired concentration. The young plants of gherkin were treated by spraying the active ingredient prepared as described above. Control plants were treated only with an aqueous solution of Acetone/Dimethyl sulfoxide/Tween® 80. After 24 hours, the plants were contaminated by spraying the leaves with an aqueous suspension of Sphaerotheca fuliginea spores.

[1] = tested on: Colletotrichum lindemuthianum; test: In vivo preventive test on Colletotrichum lindemuthianum (leaf spot on bean); settings: 168 h, 500 ppm of active ingredient, preventive spray on bean, evaluated 7 days after inoculation, read-out: efficacy
Protocol: as §1, with “bean” for “gherkin”, “Colletotrichum lindemuthianum” for “Sphaerotheca fuliginea”

Septoria tritici = Septoria tritici in vitro cell test; assay type: cell-based; settings: Zymoseptoria tritici, 168 h; 20 ppm of active ingredient; liquid culture, 7 days incubation; read-out: efficacy (inhibition of fungal growth)
Protocol: • Solvent: DMSO • Culture medium: 1 g KH2PO4 (VWR), 1 g K2HPO4 (VWR), 0.5 g Urea (VWR), 3 g KNO3 (Prolabo), 10 g saccharose (VWR), 0.5 g MgSO4, 7H2O (Sigma), 0.07 g CaCl2, 2H2O (Prolabo), 0.2 mg MnSO4, H2O (Sigma), 0.6 mg CuSO4, 5H2O (Sigma), 7.9 mg ZnSO4, 7H2O (Sigma), 0.1 mg H3BO3 (Merck), 0.14 mg NaMoO4, 2H2O (Sigma), 2 mg thiamine (Sigma), 0.1 mg biotine (VWR), 4 mg FeSO4, 7H2O (Sigma), QSP 1 liter • Inoculum: spore suspension Fungicides were solubilized in DMSO and the solution used to prepare the required range of concentrations. […] A spore suspension of S. tritici was prepared and diluted to the desired spore density. Fungicides were evaluated for their ability to inhibit spore germination and mycelium growth in liquid culture assay. The compounds were added in the desired concentration to the culture medium with spores. […] Inhibition of fungal growth was determined by comparing the absorbance values in wells containing the fungicides with the absorbance in control wells without fungicides.

Pyricularia Oryzae = test: microbe, parasite or virus in culture; assay type: cell-based; settings: 120 h, read-out: efficacy (inhibition of fungal growth)
[2] = Measurement of LogP values by HPLC on reversed phase columns (EEC directive 79/831 Annex V.A8); assay type: physicochemical; settings: method [a]: LC-UV, acidic range, 0.1% formic acid in water and acetonitrile; compounds of formula (I-1), Table 1
Protocol: Calibration was done with straight-chain alkan2-ones (with 3 to 16 carbon atoms) with known LogP values (measurement of LogP values using retention times with linear interpolation between successive alkanones). Lambda-max-values were determined using UV-spectra from 200 nm to 400 nm and the peak values of the chromatographic signals

Pyrenophora teres = test: In vivo preventive test on Pyrenophora teres (net blotch on barley); settings: 240 h, 500 ppm of active ingredient, preventive spray on barley, evaluated 10 days after inoculation, read-out: efficacy
Protocol: as §1, with “barley” for “gherkin”, “Pyrenophora teres” for “Sphaerotheca fuliginea”

Alternaria alternata = Alternaria alternata in vitro cell test; assay type: cell-based; settings: 120 h, 20 ppm of active ingredient, liquid culture, 5 days incubation, read-out: efficacy (inhibition of fungal growth)
Protocol: (§2) • Solvent: DMSO • Culture medium: 14.6 g anhydrous D-glucose (VWR), 7.1 g Mycological Peptone (Oxoid), 1.4 g granulated Yeast Extract (Merck), QSP 1 liter • Inoculum: spores suspension Fungicides were solubilized in DMSO and the solution used to prepare the required range of concentrations. […] A spore suspension of A. alternata was prepared and diluted to the desired spore density. Fungicides were evaluated for their ability to inhibit spore germination and mycelium growth in liquid culture assay. The compounds were added in the desired concentration to the culture medium with spores. After 5 days incubation, fungi-toxicity of compounds was determined by spectrometric measurement of mycelium growth. Inhibition of fungal growth was determined by comparing the absorbance values in wells containing the fungicides with the absorbance in control wells without fungicides.

Alternaria brassicae = test: In vivo preventive test on Alternaria brassicae (leaf spot on radish or cabbage); settings: 144 h, 500 ppm of active ingredient, preventive spray on radish or cabbage, evaluated 6 days after inoculation, read-out: efficacy
Protocol: as §1, with “radish or cabbage” for “gherkin”, “Alternaria brassicae” for “Sphaerotheca fuliginea”

[3] = tested on: Colletotrichum lindemuthianum; test: Colletotrichum lindemuthianum in vitro cell test; assay type: cell-based; settings: 144 h, 20 ppm of active ingredient, liquid culture, 6 days incubation, read-out: efficacy (inhibition of fungal growth)
Protocol: as §2, with “of C. lindemuthianum” for “of A. alternata”, “inhibit spores” for “inhibit spore”, “After 6” for “After 5”

Botrytis cinerea = test: In vivo preventive test on Botrytis cinerea (grey mould); settings: 500 ppm of active ingredient, preventive spray on gherkin or cabbage, evaluated 4 to 5 days after inoculation, read-out: efficacy
Protocol: as §1, with “gherkin or cabbage” for “gherkin”, “Botrytis cinerea” for “Sphaerotheca fuliginea”

Fusarium culmorum = Fusarium culmorum in vitro cell test; assay type: cell-based; settings: 96 h, 20 ppm of active ingredient, liquid culture, 4 days incubation, read-out: efficacy (inhibition of fungal growth)
Protocol: • Solvent: DMSO • Culture medium: 14.6 g anhydrous D-glucose (VWR), 7.1 g Mycological Peptone (Oxoid), 1.4 g granulated Yeast Extract (Merck), QSP 1 liter • Inoculum: spore suspension • Fungicides were solubilized in DMSO and the solution used to prepare the required range of concentrations. The final concentration of DMSO used in the assay was ≤1%.
A spore suspension of F. culmorum was prepared and diluted to the desired spore density.
Fungicides were evaluated for their ability to inhibit spore germination and mycelium growth in liquid culture assay. The compounds were added in the desired concentration to the culture medium with spores. After 4 days incubation, fungi-toxicity of compounds was determined by spectrometric measurement of mycelium growth. Inhibition of fungal growth was determined by comparing the absorbance values in wells containing the fungicides with the absorbance in control wells without fungicides.

## Cc1cc(C)cc(CC2CON=C(c3cc(C)nnc3Oc3cccc(C)c3F)N2)c1 (racemic) [Compound I-008, (5RS)-5-(3,5-dimethylbenzyl)-3-[3-(2-fluoro-3-methylphenoxy)-6-methylpyridazin-4-yl]-5,6-dihydro-4H-1,2,4-oxadiazine]
Sphaerotheca fuliginea
  pest or weed control at 500 ppm: 90 to 100%
[1]
  pest or weed control at 500 ppm: 90 to 100%
Septoria tritici
  inhibition at 20 ppm: 90 to 100%
Pyricularia Oryzae
  inhibition at 20 ppm: 90 to 100%
[2]
  chromatographic logP: 3.85
Pyrenophora teres
  pest or weed control at 500 ppm: 90 to 100%
Alternaria alternata
  inhibition at 20 ppm: 90 to 100%
Alternaria brassicae
  pest or weed control at 500 ppm: 90 to 100%
[3]
  inhibition at 20 ppm: 90 to 100%
Botrytis cinerea
  pest or weed control at 500 ppm: 90 to 100%

## Cc1ccc(C)c(CC2CON=C(c3cc(C)nnc3Oc3cccc(C)c3F)N2)c1 (racemic) [Compound I-013, (5RS)-5-(2,5-dimethylbenzyl)-3-[3-(2-fluoro-3-methylphenoxy)-6-methylpyridazin-4-yl]-5,6-dihydro-4H-1,2,4-oxadiazine]
Sphaerotheca fuliginea
  pest or weed control at 500 ppm: 90 to 100%
[1]
  pest or weed control at 500 ppm: 90 to 100%
Septoria tritici
  inhibition at 20 ppm: 90 to 100%
Pyricularia Oryzae
  inhibition at 20 ppm: 80 to 89%
[2]
  chromatographic logP: 3.69
Pyrenophora teres
  pest or weed control at 500 ppm: 80 to 89%
Alternaria alternata
  inhibition at 20 ppm: 90 to 100%
Alternaria brassicae
  pest or weed control at 500 ppm: 90 to 100%
[3]
  inhibition at 20 ppm: 90 to 100%
Botrytis cinerea
  pest or weed control at 500 ppm: 90 to 100%

## Cc1ccc(CC2CON=C(c3cc(C)nnc3Oc3cccc(C4(F)CC4)c3)N2)c(C)c1 (racemic) [Compound I-015, (5RS)-5-(2,4-dimethylbenzyl)-3-{3-[3-(1-fluorocyclopropyl)phenoxy]-6-methylpyridazin-4-yl}-5,6-dihydro-4H-1,2,4-oxadiazine]
Sphaerotheca fuliginea
  pest or weed control at 500 ppm: 90 to 100%
Fusarium culmorum
  inhibition at 20 ppm: 80 to 89%
[1]
  pest or weed control at 500 ppm: 90 to 100%
Pyricularia Oryzae
  inhibition at 20 ppm: 90 to 100%
[2]
  chromatographic logP: 3.78
Pyrenophora teres
  pest or weed control at 500 ppm: 90 to 100%
Alternaria alternata
  inhibition at 20 ppm: 90 to 100%
Alternaria brassicae
  pest or weed control at 500 ppm: 90 to 100%
[3]
  inhibition at 20 ppm: 90 to 100%
Botrytis cinerea
  pest or weed control at 500 ppm: 90 to 100%

## C=C(OCC)c1cc(C2=NOCC(Cc3ccc(Cl)cc3Cl)N2)c(Oc2cccc(C3CC3)c2)nn1 (racemic) [Compound I-019, (5RS)-3-[3-(3-cyclopropylphenoxy)-6-(1-ethoxyvinyl)pyridazin-4-yl]-5-(2,4-dichlorobenzyl)-5,6-dihydro-4H-1,2,4-oxadiazine]
Sphaerotheca fuliginea
  pest or weed control at 500 ppm: 90 to 100%
Fusarium culmorum
  inhibition at 20 ppm: 70 to 79%
[1]
  pest or weed control at 500 ppm: 90 to 100%
Pyricularia Oryzae
  inhibition at 20 ppm: 90 to 100%
[2]
  chromatographic logP: 5.19
Pyrenophora teres
  pest or weed control at 500 ppm: 90 to 100%
Alternaria alternata
  inhibition at 20 ppm: 90 to 100%
Alternaria brassicae
  pest or weed control at 500 ppm: 90 to 100%
[3]
  inhibition at 20 ppm: 90 to 100%
Botrytis cinerea
  pest or weed control at 500 ppm: 90 to 100%

## C=C(OCC)c1cc(C2=NOCC(Cc3ccc(Cl)cc3Cl)N2)c(Oc2cccc(C3CC3)c2F)nn1 (racemic) [Compound I-020, (5RS)-3-[3-(3-cyclopropyl-2-fluorophenoxy)-6-(1-ethoxyvinyl)pyridazin-4-yl]-5-(2,4-dichlorobenzyl)-5,6-dihydro-4H-1,2,4-oxadiazine]
Sphaerotheca fuliginea
  pest or weed control at 500 ppm: 90 to 100%
[1]
  pest or weed control at 500 ppm: 90 to 100%
Septoria tritici
  inhibition at 20 ppm: 90 to 100%
Pyricularia Oryzae
  inhibition at 20 ppm: 90 to 100%
[2]
  chromatographic logP: 5.41
Pyrenophora teres
  pest or weed control at 500 ppm: 90 to 100%
Alternaria alternata
  inhibition at 20 ppm: 90 to 100%
Alternaria brassicae
  pest or weed control at 500 ppm: 90 to 100%
[3]
  inhibition at 20 ppm: 90 to 100%
Botrytis cinerea
  pest or weed control at 500 ppm: 90 to 100%

## Cc1cc(C2=NOCC(Cc3ccc(Cl)cc3Cl)N2)c(Oc2cccc(C3(Cl)CC3)c2)nn1 (racemic) [Compound I-022, (5RS)-3-{3-[3-(1-chlorocyclopropyl)phenoxy]-6-methylpyridazin-4-yl}-5-(2,4-dichlorobenzyl)-5,6-dihydro-4H-1,2,4-oxadiazine]
Sphaerotheca fuliginea
  pest or weed control at 500 ppm: 90 to 100%
[1]
  pest or weed control at 500 ppm: 90 to 100%
Pyricularia Oryzae
  inhibition at 20 ppm: 70 to 79%
[2]
  chromatographic logP: 4.51
Pyrenophora teres
  pest or weed control at 500 ppm: 90 to 100%
Alternaria alternata
  inhibition at 20 ppm: 90 to 100%
Alternaria brassicae
  pest or weed control at 500 ppm: 90 to 100%
Botrytis cinerea
  pest or weed control at 500 ppm: 90 to 100%

## Cc1ccc(CC2CON=C(c3cc(C(C)O)nnc3Oc3cccc(C4CC4)c3)N2)c(C)c1 (centres unmarked) [Compound I-016, 1-{6-(3-cyclopropylphenoxy)-5-[5-(2,4-dimethylbenzyl)-5,6-dihydro-4H-1,2,4-oxadiazin-3-yl]pyridazin-3-yl}ethanol]
Sphaerotheca fuliginea
  pest or weed control at 500 ppm: 90 to 100%
[1]
  pest or weed control at 500 ppm: 90 to 100%
Septoria tritici
  inhibition at 20 ppm: 90 to 100%
Pyricularia Oryzae
  inhibition at 20 ppm: 90 to 100%
[2]
  chromatographic logP: 3.55
Pyrenophora teres
  pest or weed control at 500 ppm: 80 to 89%
Alternaria alternata
  inhibition at 20 ppm: 90 to 100%
Alternaria brassicae
  pest or weed control at 500 ppm: 90 to 100%
[3]
  inhibition at 20 ppm: 90 to 100%
Botrytis cinerea
  pest or weed control at 500 ppm: 90 to 100%
